In one data set the target is T1, human CHT (Homo sapiens, UniProt Q9GZV3, L531A/V532A).
T1 sequence (Q9GZV3 1-580 L531A/V532A): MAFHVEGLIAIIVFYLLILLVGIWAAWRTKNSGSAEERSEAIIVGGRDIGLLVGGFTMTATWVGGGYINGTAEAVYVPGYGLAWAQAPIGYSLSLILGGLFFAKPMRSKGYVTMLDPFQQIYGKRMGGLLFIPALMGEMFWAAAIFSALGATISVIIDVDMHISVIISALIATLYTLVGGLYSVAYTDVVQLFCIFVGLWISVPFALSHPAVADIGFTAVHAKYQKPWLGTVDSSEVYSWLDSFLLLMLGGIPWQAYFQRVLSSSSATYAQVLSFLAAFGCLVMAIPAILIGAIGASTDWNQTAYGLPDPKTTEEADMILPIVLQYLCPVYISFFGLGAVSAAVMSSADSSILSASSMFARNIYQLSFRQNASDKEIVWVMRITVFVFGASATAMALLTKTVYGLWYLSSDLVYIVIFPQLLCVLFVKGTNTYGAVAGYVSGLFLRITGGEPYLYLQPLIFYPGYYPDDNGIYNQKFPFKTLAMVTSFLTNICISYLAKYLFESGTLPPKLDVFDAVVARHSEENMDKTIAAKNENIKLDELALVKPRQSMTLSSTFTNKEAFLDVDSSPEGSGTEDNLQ
The format is cell-based.

Data set [1] in a line: intrinsic clearance in liver microsomes. The conditions noted are these: mouse.
In data set [2] the test system is dopamine transporter (DAT). To be noted: at the highest concentration tested; cited from earlier work.
Data set [3] is described as follows: cassette tissue distribution study in mice. The format is in vivo, mouse. The conditions noted are these: 1.0 mg/kg per compound intraperitoneal cassette dose, n = 3.

SMILES strings stand for the structures.

Consider `COc1ccc(C(=O)NCc2cc(C(C)C)no2)cc1O` [Compound 10v], for which, at human CHT, the “CHT inhibitory activity” value is “inactive”. For the compound `COc1ccc(C(=O)NCc2cc(C(C)C)no2)cc1OC1CCCC1` [Compound 10p], the “CHT inhibitory activity” value at human CHT is “inactive”. For `COc1ccc(C(=O)NCc2cc(C(C)C)no2)cc1OCCN1CCCCC1` [Compound 10q], the CLint scaled in data set [1] came out at 167 mL/min/kg. As for `COc1ccc(C(=O)NCc2cc(C(C)C)no2)cc1OC1CCCN(C)C1` (stereo not drawn) [Compound 10n], the “CHT inhibitory activity” value on human CHT is given as “tolerated, but less active”. As to `COc1ccc(C(=O)NCc2cc(C(C)C)no2)cc1OC1CCN(C)CC1` [Compound 10m, N-((3-isopropylisoxazol-5-yl)methyl)-4-methoxy-3-((1-methylpiperidin-4-yl)oxy)benzamide], the CLint scaled in data set [1] worked out at 43.7 mL/min/kg. Further, in data set [2], the DAT inhibitory activity entry is “did not show any inhibitory activity”. Besides, the “CHT inhibitory activity” value at human CHT is listed as “equipotent with the isopropyl analog”.

On to `COc1ccc(C(=O)NCc2ccc(C)s2)cc1OC1CCN(C(C)C)CC1` [Compound 10c], for which the “activity at the high choline concentration” value on human CHT (high (10 μM) choline) is “modest inhibitory activity”. For the same compound, at human CHT (low (100 nM) choline), the “activity at the low choline concentration” value was “inactive”.

In the case of `COc1ccc(C(=O)NCc2cc(C(C)C)no2)cc1OCCN1CCOCC1` [Compound 10r], the “fold less active than the piperidine analog” value on human CHT (morpholine 10r versus piperidine 10q) is recorded as ~ 10 fold. In data set [1], `COc1ccc(C(=O)NCc2cc(C(C)C)no2)cc1OC1CCN(C(C)C)CC1` [Compound 10e] displayed a CLint scaled of 781 mL/min/kg. The Brain concentration result in data set [3] is “BLQ”.

The compound `COc1ccc(C(=O)NCc2csc(C)n2)cc1OC1CCN(C(C)C)CC1` [Compound 10b] showed a CLint scaled in data set [1] of 979 mL/min/kg. `COc1ccc(C(=O)NCc2cc(C(C)C)no2)cc1OC1CCCCC1` [Compound 10o]: the “CHT inhibitory activity” value at human CHT is “inactive”.

As for `COc1ccc(C(=O)NCc2cc(C(C)C)no2)cc1OC1CCNCC1` [Compound 10l], the “CHT inhibitory activity” value at human CHT is on record as “much less active”.

Turning to `CCn1nc(C)c(CNC(=O)c2ccc(OC)c(OC3CCN(C(C)C)CC3)c2)c1C` [Compound 10f], the CLint scaled in data set [1] came out at 29.9 mL/min/kg. Moreover, in data set [3], the Brain concentration entry is reported as “BLQ”.

On to `COc1ccc(C(=O)NC(C)Cc2ccccn2)cc1OC1CCN(C(C)C)CC1` (stereo not drawn) [Compound 10k], for which, in data set [1], the CLint scaled was 106 mL/min/kg.

The record behind these values is paper PMC4385452 (Bioorganic & medicinal chemistry letters, 2015).
